# Assay results from patent publication US11927589B2, “Carrier peptide fragment for nucleolar localization and use thereof” (TOAGOSEI CO., LTD., priority 2021, dated 2024).
# FAM = FAM: 5(6)-carboxyfluorescein, a fluorescent dye
# Assays:
# [1] = test system: HeLa cells; test: Evaluation of cell membrane permeability by flow cytometry (Test 1); settings: 10 μM, 20 hours incubation
# Procedure: HeLa cells were cultured in a DMEM (Dulbecco's modified Eagle's medium (Cat No. 043-30085 commercially available from FUJIFILM Wako Pure Chemical Corporation)) containing 10% FBS (fetal bovine serum), which is a general culture medium.
# HeLa cells adhered to a culture plate were washed with PBS and a 0.25% trypsin/EDTA solution was then added, and the cells were incubated at 37° C. for 3 minutes. After the incubation, a 10% FBS-containing DMEM was added, trypsin was inactivated, and centrifugation was then performed at 150×g for 5 minutes to precipitate cells. […]
# For the obtained cells (cell pellets), the cell permeability of Sample 1 was analyzed using a flow cytometer. […]
# Using the flow cytometer, gating was performed based on forward scatter (FSC) and side scatter (SSC), a gate was set for a cell population to be analyzed, and the fluorescent intensity was measured for the cell population within such a gate. […] For measurement of the fluorescent intensity, a fluorescence detector FL2 (optimal detection wavelength of about 543 nm) of the flow cytometer that can detect a fluorescence wavelength of FAM was used. The measurement results were analyzed using commercially available analysis software “FlowJo (registered trademark)” (commercially available from TreeStar) to obtain a mean fluorescent intensity (MFI) of the cell population to be measured.
# [2] = Cytotoxicity examination by the inventors; format: cell-based
# Procedure: In all of the amino acid sequences shown in SEQ ID NOs 1 to 4, 11 amino acid residues among 13 amino acid residues are composed of basic amino acids (arginine and lysine). […] On the other hand, in the carrier peptide fragment composed of any of the amino acid sequences shown in SEQ ID NOs 1 to 4, the inventors have confirmed through examination that, even if the concentration of the carrier peptide fragment is 100 μM, there is almost no cytotoxicity, and the cytotoxicity is much lower than that of R8. […] Although the details of the mechanism are not clear, in the carrier peptide fragment disclosed here, it is estimated that inclusion of a threonine residue and a leucine residue which are neutral amino acids at the 4th and 5th positions in addition to basic amino acids contributes to reduction of cytotoxicity.
# [3] = test system: HeLa cells; test: Intracellular localization by confocal laser scanning microscopy (Test 2); format: cell-based, human; settings: 5 μM, 20 hours, methanol-fixed, DAPI/FAM merged images
# Procedure: In this test, localization of Samples 1 to 5 in HeLa cells was analyzed. HeLa cells were seeded on collagen-coated 8-well slides at about 2×10^4 cells/well, and cultured overnight in the presence of 5% CO2 at 37° C. A 10% FBS-containing DMEM was used as the cell culture solution.
# Then, the supernatant (culture solution) was removed, ice-cooled PBS was added, and washing on ice was performed three times. Then, ice-cooled methanol was added, the sample was left at −20° C. for 10 minutes, and the cells were immobilized. Then, methanol was removed, and washing was then performed three times with ice-cooled PBS. Then, a DAPI-containing encapsulant (commercially available from ThemoFisher Scientific) and a cover glass were used for encapsulation and fluorescence observation was performed under a confocal laser scanning microscope. […] Here, all FIGS. 2A to 2E show images in which fluorescent images of DAPI and FAM were merged.
compound,measurement,setting,value
5(6)-carboxyfluorescein [Example 6],"relative value of MFI (mean fluorescent intensity), MFI value of Example 6 set to 1",[1]; flow cytometer FL2,1
"N=C(N)NCCC[C@H](NC(=O)[C@H](CCCNC(=N)N)NC(=O)[C@H](CCCNC(=N)N)NC(=O)[C@H](CCCNC(=N)N)NC(=O)[C@H](CCCNC(=N)N)NC(=O)[C@H](CCCNC(=N)N)NC(=O)[C@H](CCCNC(=N)N)NC(=O)[C@@H](N)CCCNC(=N)N)C(=O)O [Example R8, octaarginine]",cytotoxicity,[2],relatively high
Ac-KKRTLRKKKRKKR-FAM (Ac-KKRTLRKKKRKKR-{FAM}) [Example 1],MFI value compared with the MFI value of Example 5,[1],more than three times as high
Ac-KKRTLRKNDRKKR-FAM (Ac-KKRTLRKNDRKKR-{FAM}) [Example 5],fluorescence of FAM observed in the nucleolus,[3],slightly observed in the nucleolus
